Read-outs that look alike come from different tables or passages of the source.
Columns and labels:
SJSA-1 = assay: 72-h MTT cytotoxicity assay, SJSA-1; assay type: cell-based; settings: Homo sapiens, SJSA-1; 72-h MTT; Table 1; read-out: IC50 Anti-proliferative effect on cell line SJSA-1
Description: (§1) The fluorescence polarisation competitive HDM2 binding assay described in Example 3 was used. Furthermore, the anti-proliferative potency of the compounds against three human tumour cell lines with different genetic make-up was also determined. […] The cell lines used were as follows: AGS, gastric adenocarcinoma, wild-type p53; H1299, large cell lung carcinoma, p53 null, low HDM2; SJSA-1, primitive multipotential bone sarcoma, wild-type p53, overexpressed HDM2.
(§2) Representative bisarylsulfonamide compounds were tested on a panel of transformed and non-transformed human cell lines, using a standard 72-h MTT cytotoxicity assay [Haselsberger K et al, ibid].

[1] = test system: E2F transcription factors; assay: E2F reporter gene assay (A549-derived luciferase reporter cell line); assay type: cell-based; settings: Homo sapiens
Description: A similar system to the p53 reporter assay described above was used, with the exception that it was designed to be responsive to E2F transcription factors rather than p53. An A549-derived cell line stably transfected with an E2F response element and a luciferase reporter gene was created. The genetic expression cassette construct used was from Clontech (Mercury™ Cell Cycle Profiling System). Assays were carried out as described above.
Representative bisarylsulfonamides were tested in the E2F gene reporter assay described in Example 6.

AGS = assay: 72-h MTT cytotoxicity assay, AGS; assay type: cell-based; settings: Homo sapiens, 72-h MTT, Table 1, read-out: IC50 Anti-proliferative effect on cell line AGS
Description: as §1, §2

HDM2 = biological target: T1, HDM2 (Homo sapiens, UniProt Q00987); assay: Fluorescence polarisation competitive HDM2 binding assay
T1 construct: Recombinant HDM2 (1.5 μg per well) in TBS-BSA buffer
T1 sequence (Q00987 whole entry): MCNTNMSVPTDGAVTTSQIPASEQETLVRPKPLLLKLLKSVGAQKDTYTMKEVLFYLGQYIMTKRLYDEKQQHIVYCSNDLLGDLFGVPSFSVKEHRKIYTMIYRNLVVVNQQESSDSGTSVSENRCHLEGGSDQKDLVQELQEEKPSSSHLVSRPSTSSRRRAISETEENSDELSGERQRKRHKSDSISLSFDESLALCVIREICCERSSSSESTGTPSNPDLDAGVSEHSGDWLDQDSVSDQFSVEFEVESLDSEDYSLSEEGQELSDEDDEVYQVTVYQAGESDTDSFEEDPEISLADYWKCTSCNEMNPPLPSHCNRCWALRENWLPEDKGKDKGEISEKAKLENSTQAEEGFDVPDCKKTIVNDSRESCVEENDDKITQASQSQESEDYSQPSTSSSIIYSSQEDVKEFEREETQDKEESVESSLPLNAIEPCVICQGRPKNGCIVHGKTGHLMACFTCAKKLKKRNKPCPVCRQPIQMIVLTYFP
Procedure, shortened: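 Recombinant HDM2 (1.5 μg/well) was preincubated 5 min at room temperature with serially diluted compound in 50 mM Tris pH 7.4, 150 mM NaCl, 0.1% BSA, 5% DMSO final. Fluorescein-labelled p53 peptide (0.2 μM) was then added for 45 min. Polarisation was read at 485/520 nm and IC50 derived from dose-response curves.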

H1299 = assay: 72-h MTT cytotoxicity assay, H1299; assay type: cell-based; settings: Homo sapiens, NCI-H1299; 72-h MTT; Table 1; read-out: IC50 Anti-proliferative effect on cell line H 1299
Description: as §1, §2

p53 = p53 reporter gene assay (U2OS-derived luciferase reporter cell line); settings: for Fold induction of luciferase activity: compared to basal luciferase activity, 16-h time point, at concentration of maximal induction; for Concentration (test compound concentration at which the p53 induction was maximal): p53 reporter, U2OS-derived cell line
Description: A dual assay assessing both cell viability and p53 response was employed. A U2OS-derived cell line stably transfected with a p53 response element and a luciferase reporter gene was created. […] After seeding of cells into 96-well tissue culture plates, treatment with test compounds, and incubation for the desired duration, the cell proliferation reagent WST-1 (Roche Molecular Biochemicals) was used to determine cell viability. The Bright-Glo™ Luciferase Assay System (Promega) was used to measure luciferase activity. The data from the cell viability assay was used to normalise data from the luciferase assay.

[2] = after 3-h treatment with test compounds, read-out: IC50 E2F reporter, Non-synchronised cells
[3] = fluorescence polarisation assay, Table 3, read-out: In vitro competitive HDM2 binding assay IC50
[4] = fluorescence polarisation format, Table 1, read-out: IC50 In vitro competitive HDM2 binding assay
[5] = after 3-h treatment, synchronisation with 0.3 mM mimosine for 24 h, followed by wash-out, read-out: IC50 E2F reporter, Synchronised cells

O=[N+]([O-])c1cc(S(=O)(=O)NCc2ccc(C(F)(F)F)cc2)sc1Cl [Compound 46, 5-Chloro-4-nitrothiophene-2-sulfonic acid 4-trifluoromethylbenzylamide]
IC50 (SJSA-1): 4.4 ± 1.1 µM | IC50 [1, 2]: 25.5 ± 3.1 µM | IC50 (AGS): 1.3 ± 0.5 µM | IC50 (HDM2; [3]): 11.1 ± 1.7 µM | IC50 (HDM2; [4]): 11.1 ± 1.7 µM | IC50 (H1299): 3.4 ± 0.5 µM | Fold induction of luciferase activity (p53): 55 fold | Concentration (test compound concentration at which the p53 induction was maximal) (p53): 6 µM

COc1ccc(NS(=O)(=O)c2cc([N+](=O)[O-])c(Cl)s2)cc1 [Compound 61, 5-Chloro-4-nitro-thiophene-2-sulfonic acid (4-methoxy-phenyl)-amide]
IC50 (SJSA-1): 2.8 ± 0.2 µM | IC50 [1, 2]: 34.6 ± 22.9 µM | IC50 (AGS): 1.8 ± 0.4 µM | IC50 (HDM2; [3]): 45 ± 14 µM | IC50 (HDM2; [4]): 45 ± 14 µM | IC50 (H1299): 2.7 ± 0.4 µM | Fold induction of luciferase activity (p53): 34 fold | Concentration (test compound concentration at which the p53 induction was maximal) (p53): 4.8 µM

O=[N+]([O-])c1cc(S(=O)(=O)Nc2nc3ccccc3[nH]2)ccc1Cl [Compound 83, N-(1H-Benzoimidazol-2-yl)-4-chloro-3-nitro-benzenesulfonamide]
IC50 (SJSA-1): 2.3 ± 0.9 µM | IC50 [1, 2]: 29.4 ± 6 µM | IC50 (AGS): 0.9 ± 0.1 µM | IC50 (HDM2; [3]): 119 ± 42.5 µM | IC50 (HDM2; [4]): 119 ± 43 µM | IC50 (H1299): 1.4 ± 0.2 µM | Fold induction of luciferase activity (p53): 10 fold | Concentration (test compound concentration at which the p53 induction was maximal) (p53): 5 µM

O=[N+]([O-])c1cc(S(=O)(=O)NCCc2c[nH]c3ccccc23)sc1Cl [Compound 48, 5-Chloro-4-nitrothiophene-2-sulfonic acid [2-(1H-indol-3-yl)-ethyl]amide]
IC50 (SJSA-1): 3.1 ± 1 µM | IC50 [1, 2]: 31.3 ± 2.6 µM | IC50 (AGS): 2.6 ± 1.4 µM | IC50 (HDM2; [3]): 25.3 ± 4.6 µM | IC50 (HDM2; [4]): 25.3 ± 4.6 µM | IC50 (H1299): 3.6 ± 0.9 µM | Fold induction of luciferase activity (p53): 43.5 fold | Concentration (test compound concentration at which the p53 induction was maximal) (p53): 5.5 µM

O=[N+]([O-])c1cc(S(=O)(=O)NCCc2c[nH]c3cc(Cl)ccc23)sc1Cl [Compound 60, 5-Chloro-4-nitro-thiophene-2-sulfonic acid [2-(6-chloro-1H-indol-3-yl)-ethyl]-amide]
IC50 [1, 2]: 29.2 ± 6.8 µM | IC50 (HDM2; [3]): 29 ± 6 µM | IC50 (HDM2; [4]): 29 ± 6 µM | Fold induction of luciferase activity (p53): 48 fold | Concentration (test compound concentration at which the p53 induction was maximal) (p53): 7.5 µM

O=[N+]([O-])c1cc(S(=O)(=O)NCc2ccc(F)cc2)sc1Cl [Compound 45, 5-Chloro-4-nitrothiophene-2-sulfonic acid 4-fluorobenzylamide]
IC50 (SJSA-1): 11.5 ± 3 µM | IC50 (AGS): 7.5 ± 4.4 µM | IC50 (HDM2; [3]): 16 ± 3.7 µM | IC50 (HDM2; [4]): 16 ± 3.7 µM | IC50 (H1299): 11.1 ± 3.1 µM | Fold induction of luciferase activity (p53): 67 fold | Concentration (test compound concentration at which the p53 induction was maximal) (p53): 15 µM

O=[N+]([O-])c1cc(S(=O)(=O)Nc2cc(Cl)cc(Cl)c2)sc1Cl [Compound 39, 5-Chloro-4-nitrothiophene-2-sulfonic acid (3,5-dichlorophenyl)-amide]
IC50 (SJSA-1): 27.2 ± 0.4 µM | IC50 [1, 2]: 90 µM | IC50 (AGS): 4.9 ± 1.6 µM | IC50 (HDM2; [3]): 46.1 ± 3.4 µM | IC50 (HDM2; [4]): 46.1 ± 3.4 µM | IC50 (H1299): 12.1 ± 4 µM | Fold induction of luciferase activity (p53): 64 fold | Concentration (test compound concentration at which the p53 induction was maximal) (p53): 15 µM

O=S(=O)(Nc1ccc(C(F)(F)F)cc1)c1cnc(Cl)c(Br)c1 [Compound 41, 5-Bromo-6-chloropyridine-3-sulfonic acid (4-trifluoromethylphenyl)amide]
IC50 (SJSA-1): 53 ± 3 µM | IC50 [1, 2]: 76.6 µM | IC50 [1, 5]: 84 µM | IC50 (AGS): 31 ± 2 µM | IC50 (HDM2; [4]): 258 ± 12 µM | IC50 (H1299): 28 µM

O=[N+]([O-])c1cc(S(=O)(=O)NCc2cc(Cl)cc(Cl)c2)sc1Cl [Compound 54, 5-Chloro-4-nitro-thiophene-2-sulfonic acid 3,5-dichloro-benzylamide]
IC50 (SJSA-1): 12 ± 0.4 µM | IC50 (AGS): 5.6 ± 0.2 µM | IC50 (HDM2; [3]): 20.2 ± 1.3 µM | IC50 (HDM2; [4]): 20.2 ± 1.3 µM | IC50 (H1299): 9.7 ± 2.9 µM | Fold induction of luciferase activity (p53): 90 fold | Concentration (test compound concentration at which the p53 induction was maximal) (p53): 10 µM

O=[N+]([O-])c1cc(S(=O)(=O)Nc2ccc(Cl)cc2)ccc1Cl [Compound 38, 4-Chloro-N-(4-chlorophenyl)-3-nitro-benzenesulfonamide]
IC50 (SJSA-1): 22 ± 4 µM | IC50 (AGS): 16 ± 4 µM | IC50 (HDM2; [3]): 231 ± 13 µM | IC50 (HDM2; [4]): 232 ± 13 µM | IC50 (H1299): 11 ± 4 µM | Fold induction of luciferase activity (p53): 4 fold | Concentration (test compound concentration at which the p53 induction was maximal) (p53): 13 µM

O=[N+]([O-])c1cc(S(=O)(=O)Nc2cc(F)cc(F)c2)sc1Cl [Compound 40, 5-Chloro-4-nitrothiophene-2-sulfonic acid (3,5-difluorophenyl)-amide]
IC50 (SJSA-1): 26.4 ± 0.2 µM | IC50 [1, 2]: 99.5 µM | IC50 (AGS): 4 ± 0.3 µM | IC50 (HDM2; [3]): 59.6 ± 10.9 µM | IC50 (HDM2; [4]): 59.6 ± 10.5 µM | IC50 (H1299): 10.6 ± 0.4 µM | Fold induction of luciferase activity (p53): 68 fold | Concentration (test compound concentration at which the p53 induction was maximal) (p53): 13 µM

COc1ccc(N(Cc2ccccc2)S(=O)(=O)c2cc([N+](=O)[O-])c(Cl)s2)cc1 [Compound 66, 5-Chloro-4-nitro-thiophene-2-sulfonic acid benzyl-(4-methoxy-phenyl)-amide]
IC50 (SJSA-1): 3.9 ± 1.3 µM | IC50 (AGS): 2.4 ± 0.2 µM | IC50 (HDM2; [3]): 14.7 ± 0.9 µM | IC50 (HDM2; [4]): 14.7 ± 0.9 µM | IC50 (H1299): 3.9 ± 0.5 µM | Fold induction of luciferase activity (p53): 65 fold | Concentration (test compound concentration at which the p53 induction was maximal) (p53): 4.2 µM

O=[N+]([O-])c1cc(S(=O)(=O)Nc2ccc(O)cc2)sc1Cl [Compound 5, 5-Chloro-4-nitrothiophene-2-sulfonic acid (4-hydroxyphenyl)amide]
IC50 (SJSA-1): 24 ± 2.1 µM | IC50 [1, 2]: 73.3 ± 33.4 µM | IC50 [1, 5]: 72 ± 31 µM | IC50 (AGS): 2.2 ± 0.6 µM | IC50 (HDM2; [4]): 105 ± 26 µM | IC50 (H1299): 8.7 ± 2.2 µM

O=[N+]([O-])c1cc(S(=O)(=O)NCc2ccccc2)sc1Cl [Compound 64, 5-Chloro-4-nitro-thiophene-2-sulfonic acid benzylamide]
IC50 (SJSA-1): 7.3 ± 1.7 µM | IC50 [1, 2]: 44.6 ± 2.3 µM | IC50 (AGS): 3.6 ± 0.2 µM | IC50 (HDM2; [4]): 18 µM | IC50 (H1299): 6.3 ± 2.1 µM

CC(NS(=O)(=O)c1cc([N+](=O)[O-])c(Cl)s1)c1ccc(F)cc1 (stereo not shown) [Compound 57, 5-Chloro-4-nitro-thiophene-2-sulfonic acid [1-(4-fluoro-phenyl)-ethyl]-amide]
IC50 (SJSA-1): 5.9 ± 0.2 µM | IC50 (AGS): 1.7 ± 0.3 µM | IC50 (HDM2; [3]): 31.1 ± 5.6 µM | IC50 (HDM2; [4]): 31.1 ± 5.6 µM | IC50 (H1299): 2.7 ± 0.6 µM | Fold induction of luciferase activity (p53): 25 fold | Concentration (test compound concentration at which the p53 induction was maximal) (p53): 7 µM

CN(c1ccc(C(F)(F)F)cc1)S(=O)(=O)c1cc([N+](=O)[O-])c(Cl)s1 [Compound 50, 5-Chloro-4-nitrothiophene-2-sulfonic acid methyl-(4-trifluoromethylphenyl)amide]
IC50 (SJSA-1): 35.4 ± 11.5 µM | IC50 (AGS): 30.3 ± 0.3 µM | IC50 (HDM2; [3]): 7.3 ± 0.6 µM | IC50 (HDM2; [4]): 7.3 ± 0.6 µM | IC50 (H1299): 34.7 ± 6.1 µM | Fold induction of luciferase activity (p53): 21 fold | Concentration (test compound concentration at which the p53 induction was maximal) (p53): 39 µM

— patent US20050215548A1 (Cyclacel Limited, priority 2002, published 2005)
